The subject of experiment [1] is Colo 205 human colon cancer cell line. Set-up: method as in marks after cisplatin lost in b83 (probably 43, 44). As to conditions: Colo 205, 72 h exposure; ref marks after cisplatin lost in b83 (probably 43, 44); cited from earlier work.
For experiment [2], the system named is calf thymus-DNA (CT-DNA). Description: Viscometry with CT-DNA. Format: binding. As to conditions: compound/DNA ratios 0.0 to 1.0; 5 mM Tris, 100 mM NaCl, pH 7.40, 25.0 °C. The protocol: […] Then, the samples were incubated at 37 °C and with constant shaking at 300 rpm for 10 min and 1 h. After each incubation, the viscosity was measured at a constant temperature of 25.0 ± 0.2 °C in a vibrational viscometer. The relative viscosity was calculated by taking the mean values of three replicate measurements, and the values were represented by plotting the values of relative viscosity of CT-DNA (η/η0)^1/3 against 1/R.

Experiment [3] has as its system MCF7 human breast cancer cell line. On the set-up: method as in marks after cisplatin lost in b83 (probably 43, 44). As to conditions: MCF7, 72 h exposure; ref marks after cisplatin lost in b83 (probably 43, 44); cited from earlier work.
In experiment [4] the test system is pBR322 plasmid DNA. In words: Agarose gel electrophoresis mobility shift. The format is binding. As to conditions: r i 0.01 to 0.20, 24 h, 37 °C. The protocol:
Complexes (2) and (3) were incubated at 37 °C with a concentration of 0.0625 μg/μL pBR322 plasmid DNA at different concentrations expressed as r i = complex:DNA (base pair) ratio. The r i used was from 0.01 to 0.20, in a total volume of 20 μL. After an incubation period of 24 h, the mobility of the complex-treated pBR322 samples was analyzed by gel electrophoresis at 70 V in Tris/acetate/EDTA buffer. A control of pBR322 was also incubated, and a 1 kb ladder aliquot was loaded into lane 1 of the gel. The gel was stained with an ethidium bromide aqueous solution, and DNA bands were visualized with a UV-transilluminator UVITEC Cambridge UVIDOC HD2 instrument. The studies were performed with 3% (v/v) DMSO as the final solution.

Experiment [5] deals with T1, hen egg white lysozyme (HEWL) (Gallus gallus, UniProt P00698).
T1 construct: a model protein, namely HEWL (hen egg white lysozyme), was also studied; from tissue; host or cells: hen egg white (from the protein's name)
T1 sequence (P00698 19-147): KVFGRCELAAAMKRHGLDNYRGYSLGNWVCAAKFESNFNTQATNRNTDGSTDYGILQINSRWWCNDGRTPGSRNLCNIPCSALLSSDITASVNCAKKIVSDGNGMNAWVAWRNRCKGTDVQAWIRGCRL
On the set-up: method as in not given. The conditions noted are these: reported under the same conditions; ref not given; cited from earlier work.

The term IC50 denotes the concentration that inhibits the measured activity by half.

With `N.N.[Cl][Pt][Cl]` [Cisplatin], the figures for the IC50 in experiment [1] and in experiment [3] were 23 ± 1 µM and 15 ± 0.01 µM, respectively. Also, the “effect on relative viscosity of CT-DNA” value in experiment [2] is listed as “relative viscosity of the solution decreases”. Moreover, the “effect on electrophoretic mobility of pBR322 (two forms, SC and OC)” value in experiment [4] was “changes in the mobility of the pBR322 isoforms”. Also, in experiment [5], the “observed rate constant k obs” value is on record as 1.98 × 10^–4 s^–1.

The values above are taken from paper PMC12648656, “Palladium(II) Complexes with Noncovalent Interactions with DNA: Solution Speciation Controlled by Solvent Identity, pH, and Concentration” (Inorganic Chemistry, 2025).
